Numbered stars: 1 amine (or outer) side, 2 acyl side, 3 side chain; on linkers, the order of the positions; unused ones are H or OH. Square brackets hold non-standard residues; d marks the D form. Peptide text beside a SMILES is read from it. N(2-(2-PhOPh)Et)Gly = O=C(O)CNCCc1ccccc1Oc1ccccc1; Gly(N-3,5-(OMe)2-Ph) = COc1cc(NCC(=O)O)cc(OC)c1; X1 = COc1ccc([C@H](C)N(CC(=O)[*:2])[*:1])cc1; N((CH2)3OiPr)Gly = CC(C)OCCCNCC(=O)O
What was measured:
[1] = tested on: TOP-Flash Wnt luciferase reporter; assay: TOP-Flash Wnt luciferase reporter assay in LNCaP-abl cells; type: cell-based; conditions: for Effect of control Wnt inhibitors on the Wnt luciferase reporter: dose response, commercially available inhibitors (Supplementary Fig. 5)
Source text: (§1) Using a TOP-Flash Wnt luciferase reporter, we tested the 12 oligomers identified from in silico modeling for inhibitory activity (Fig. 2b). […] We also employed a 3 × -Androgen Response Element (ARE) luciferase reporter to measure the effect on AR activity. […] As additional controls, we obtained previously developed, commercially available Wnt inhibitors and tested them in the Wnt luciferase assay (Supplementary Fig. 5).
(§2) We next characterized the dose response curves for compound 13 in the Wnt and AR luciferase reporters. The linear version of 13 (linear 13: NH2-|N-mpp, N-dmp, N-ipp, N-Smpe, N-Smpe, D-Ala|-OH) was used as a control compound. […] To test direct binding, we pre-formed dynamic light scattering (DLS) with β-catenin in the presence of vehicle, compound 13, and α-cyclodextrin. […] HEK293 cells were transiently transfected with a plasmid expressing full length, myc-tagged TCF4. After 48 h treatment with either vehicle (DMSO) or 10 µM 13, cells were lysed and myc-TCF4 protein was immunoprecipitated.
LNCaP-abl and LNCaP-95 cells were cultured in indicator free RPMI 1640 media (Life) supplemented with 10% charcoal stripped FBS, 1% pennicillin/streptomycin, and 1% L-Glutamine. HEK-293 Cells were cultured in DMEM media (Life) supplemented with 10%FBS and 1% pennicillin/streptomycin. A549 and U2OS cells were cultured in RPMI 1640 media (Life) and McCoy’s 5 A modified media (Life), respectively, both supplemented with 10%FBS and 1% pennicillin/streptomycin. LNCaP-abl, and LNCaP-95 cell lines were generous gifts from Z. Culig (Innsbruck Medical University, Austria) and J. Isaacs (Johns Hopkins University, Baltimore, MD), respectively. Cell lines were authenticated by STR profiling (Genetica Cell Line Testing; Burlington, NC). A549 and U2OS were purchased from ATCC (product numbers CCL-185 and HTB-96). Cell lines were routinely screened for mycoplasma. Luciferase assays were conducted using stably transfected TOP-flash and 3xARE LNCaP-abl cell lines. For the Wnt pathway, TOP-Flash LNCaP-abl cells were treated with 1 nM siAPC (a 1:1:1 mix of Ambion Silencer Silect siAPC RNA, ID#s s1433, s1434, s1435) for 24 h and seeded into 384-well plates at 5000 cells/well, followed by 24 h of treatment with compound. For the AR-pathway, 3xARE LNCaP-abl cells were seeded into 384-well plates at 5000 cells per well, treated for 48 h with compound, with the addition of R1881 for the final 8 h. Both were measured using the ONE-Glo detection kit (Promega) and data is standardized to CellTiter-Fluor (Promega) viability readings to account for potential variations in well to well cell number. Control Wnt inhibitors were purchased from Sigma with the exception of PRI-724 which was purchased from Selleckchem. Co-immunoprecipitation was carried out using HEK293 cells transfected with either myc-TCF (addgene #32738) or myc-TCF dominant negative (addgene #32739) followed by 48 h of treatment with compound. Cells were lysed using Triton lysis buffer and 1 mg total protein was incubated overnight at 4 C with 40 µl anti-cMyc magnetic beads (Thermo). Total protein concentration in cell lysates were determined using Pierce Rapid Gold BCA Protein Assay Kit (Thermo). The beads were washed 3× with lysis buffer then boiled in 2X sample loading dye. SDS-PAGE and western blotting were performed using anti-Myc (CST 2276) and anti-β-catenin (CST 8480). Both antibodies were diluted in blocking buffer 1:1000 and incubated overnight at 4 C with the membrane. […]

[2] = design: method as in PMID 24019458; conditions: mouse xenograft experiments, direct tumor injection required; cited from earlier work
[3] = tested on: AR luciferase reporter (3xARE); assay: 3x-Androgen Response Element (ARE) luciferase reporter assay in LNCaP-abl cells; type: cell-based; conditions: 3xARE LNCaP-abl cells, 48 h compound, androgen-activated; read-out: IC50 for inhibition of the AR luciferase reporter
Source text: as §1, §2
LNCaP-abl and LNCaP-95 cells were cultured in indicator free RPMI 1640 media (Life) supplemented with 10% charcoal stripped FBS, 1% pennicillin/streptomycin, and 1% L-Glutamine. HEK-293 Cells were cultured in DMEM media (Life) supplemented with 10%FBS and 1% pennicillin/streptomycin. A549 and U2OS cells were cultured in RPMI 1640 media (Life) and McCoy’s 5 A modified media (Life), respectively, both supplemented with 10%FBS and 1% pennicillin/streptomycin. LNCaP-abl, and LNCaP-95 cell lines were generous gifts from Z. Culig (Innsbruck Medical University, Austria) and J. Isaacs (Johns Hopkins University, Baltimore, MD), respectively. Cell lines were authenticated by STR profiling (Genetica Cell Line Testing; Burlington, NC). […] Both were measured using the ONE-Glo detection kit (Promega) and data is standardized to CellTiter-Fluor (Promega) viability readings to account for potential variations in well to well cell number. […] Total protein concentration in cell lysates were determined using Pierce Rapid Gold BCA Protein Assay Kit (Thermo). […]

[4] = tested on: Wnt signaling in zebrafish embryos; conditions: 50 µl of 30 µM compound added at ~5.5 hpf, BIO added about 30 min later; eight fish per group
Experimental: To evaluate the efficacy of 13 in vivo, we utilized a Danio rerio (zebrafish) model. […] To test this, BIO was added to zebrafish embryos at 6 hpf with and without 13 as described in Fig. 6a.
The zebrafish phenotypic assay was conducted using wild-type zebrafish embryos seeded into a 96-well round bottom plate at 4 hpf in 50 µl of Fish Water (60 mg/l sea salt, Instant Ocean, Blacksburg, VA, USA) supplemented with 1 mg per L Methylene Blue (Sigma-Aldrich). The embryos were not dechorionated. At 50% epiboly, roughly 5.5 hpf, 50 µl of 30 µM 13 or Linear 13 was added. About 30 min later at shield stage, 50 µl of 6 nM (3×) BIO was added. The embryos were then visualized for the presence of eyes and imaged at 30 hpf. Zebrafish embryos were randomly assigned to non-blinded treatment groups, none were excluded. Sample size was determined with a power calculation to achieve statistical significance (alpha = 0.05, beta = 0.2) if only 60% of the fish had developed eyes.

β-catenin = molecular target: T1, β-catenin (Homo sapiens, UniProt P35222); assay: Dynamic light scattering of β-catenin; type: binding; conditions: 10 µM compound vs 1% DMSO vehicle
T1 construct: His6-β-catenin armadillo domain, AA134-668; made in house; host or cells: E. coli BL21 DL3 (NEB)
T1 sequence (P35222 134-668): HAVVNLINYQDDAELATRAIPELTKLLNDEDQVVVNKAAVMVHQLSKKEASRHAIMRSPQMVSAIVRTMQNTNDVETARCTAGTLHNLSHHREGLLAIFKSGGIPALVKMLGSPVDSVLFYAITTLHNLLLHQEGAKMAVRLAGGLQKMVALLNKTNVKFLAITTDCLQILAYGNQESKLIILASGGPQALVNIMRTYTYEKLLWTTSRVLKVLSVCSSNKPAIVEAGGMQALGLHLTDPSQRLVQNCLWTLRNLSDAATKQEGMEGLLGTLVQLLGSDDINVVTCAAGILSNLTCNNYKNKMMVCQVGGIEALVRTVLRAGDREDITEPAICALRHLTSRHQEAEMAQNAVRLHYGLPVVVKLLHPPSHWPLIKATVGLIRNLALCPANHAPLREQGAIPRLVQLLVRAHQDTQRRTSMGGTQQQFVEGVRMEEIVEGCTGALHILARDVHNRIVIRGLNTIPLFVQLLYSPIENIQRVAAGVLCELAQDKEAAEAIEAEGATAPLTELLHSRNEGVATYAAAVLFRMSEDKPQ
Experimental: as §2

## C[C@H]1[C@H]2N(C(=O)CN(C)N2C(=O)NCc2ccccc2)[C@@H](Cc2ccc(OP(=O)(O)O)cc2)C(=O)N1Cc1cccc2cccnc12 [PRI-724, reference compound]
[1]
  Effect of control Wnt inhibitors on the Wnt luciferase reporter: did inhibit the luciferase reporter

## CCc1ccc(-c2nc(CSCC(=O)NCCc3ccccc3)c(C)o2)cc1 [iCRT3, reference compound]
[1]
  Effect of control Wnt inhibitors on the Wnt luciferase reporter: did inhibit the luciferase reporter
[2]
  Systemic stability: not systemically stable

## COc1ccc([C@H](C)N(CC(=O)N[C@H](C)C(=O)O)C(=O)CN(C(=O)CN(CCCOC(C)C)C(=O)CN(C(=O)CNCCc2ccccc2Oc2ccccc2)c2cc(OC)cc(OC)c2)[C@@H](C)c2ccc(OC)cc2)cc1 [linear 13, NH2-|N-mpp, N-dmp, N-ipp, N-Smpe, N-Smpe, D-Ala|-OH] (H-[N(2-(2-PhOPh)Et)Gly][Gly(N-3,5-(OMe)2-Ph)][N((CH2)3OiPr)Gly][X1][X1][dA]-OH)
[3]
  IC50: 7.63 µM
[1]; TOP-Flash LNCaP-abl cells, siAPC knockdown, 24 h compound, ± SD of three replicates, read-out: IC50 for Wnt luciferase inhibition
  IC50: 3.27 µM
[4]
  Fish that developed eyes, BIO plus compound: 6/8

## OC[C@H]1O[C@@H]2O[C@H]3[C@H](O)[C@@H](O)[C@@H](O[C@H]4[C@H](O)[C@@H](O)[C@@H](O[C@H]5[C@H](O)[C@@H](O)[C@@H](O[C@H]6[C@H](O)[C@@H](O)[C@@H](O[C@H]7[C@H](O)[C@@H](O)[C@@H](O[C@H]1[C@H](O)[C@H]2O)O[C@@H]7CO)O[C@@H]6CO)O[C@@H]5CO)O[C@@H]4CO)O[C@@H]3CO [α-cyclodextrin, reference compound]
β-catenin
  Shift in measured hydrodynamic radius of β-catenin (DLS): did not cause the same shift

Reference: PMC6199279, “Design of Peptoid-peptide Macrocycles to Inhibit the β-catenin TCF Interaction in Prostate Cancer” (Nature Communications, 2018)
